Test: Tissue distribution by quantitative whole-body autoradiography (QWBA)
Assay type: in vivo, male Sprague Dawley and Long-Evans rats
Conditions: for Concentration of radioactivity: SD rat, 15 mg/kg IV
Description: The study utilized 4 groups of male SD rats (albino), and 3 groups of male LE rats (pigmented); a total of 39 rats. All animals were obtained from Hilltop Lab Animals, Inc. (Scottdale, Pa.). […] Rats in Group 5 were administered a single 2-h IV infusion of [^14C]brincidofovir at a target dose of 2 mg/kg. […] Three dosing formulations (one for high dose IV, one for low dose IV, and one for PO dose) were prepared at QPS on the day of dosing. The IV formulation for Groups 1, 2, 3, and 4 contained a vehicle of 10 mM sodium phosphate buffer in 5% dextrose solution at pH 8.0(±0.1).
Each animal, at their respective termination time points, was euthanized for QWBA analysis immediately after blood collection. One rat per time point per Group was euthanized as listed below.
The blood samples were maintained on wet ice (approximately 4° C.) and then centrifuged to obtain plasma within 1 h of the blood collection time. Centrifuge settings were recorded in the study notebook. Duplicate aliquots of plasma (0.050 mL) were analyzed for radioactivity using direct counting by LSC, and residual plasma was stored at approximately −70° C. and was saved for possible future analysis under a separate study protocol. Residual red blood cells were discarded as radioactive waste.
The pinna, distal limbs, hair, and tail were removed from each frozen carcass and each frozen carcass was embedded in an aqueous suspension of approximately 2% (w/v) carboxymethylcellulose and frozen into a block. The blocks were stored at approximately −20° C. prior to sectioning. Each blocked carcass was mounted on the object stage of a cryomicrotome (Leica CM3600 Cryomacrocut, Nussloch, Germany and Vibratome 9800, St. Louis, Mo.) maintained at approximately −20° C. and internal standards (3), which were plasma fortified with [^14C]-glucose at one concentration (approximately 0.05 μCi/mL), were placed into the frozen blocks, prior to sectioning, and were used for section thickness quality control. A number of whole-body sections (approximately 40 μm thick) were taken in the sagittal plane at various levels of interest using a whole-body cryomicrotome set at −20° C. Sagittal sections (20-50 μm thick) of frozen carcasses were exposed to phosphor imaging plates. Regions of images in tissues were converted to concentrations using standards. All of the major tissues, organs, and biological fluids were represented.
Tissue concentration data was determined for the following tissues and/or contents: adipose (brown and white), adrenal gland, bile (in duct), blood (cardiac), bone, bone marrow, brain (cerebrum, cerebellum, medulla), cecum (and contents), large intestine (and contents), epididymis, esophagus, eye (uvea and lens), Harderian gland, heart, kidney (cortex and medulla), liver, lung, lymph node, pancreas, pituitary gland, prostate gland, salivary gland, seminal vesicles, skeletal muscle, skin (pigmented and non-pigmented), small intestine (and contents), stomach (gastric mucosa and contents), spleen, spinal cord, testis, thymus, thyroid, and urinary bladder (and contents).
The imaging plate and sections were placed in light-tight exposure cassettes, in a copper-lined lead safe, for a 4-day exposure at room temperature. […] Quantification was performed by image densitometry using MCD image analysis software (v. 7.0, Interfocus Imaging Ltd) and a standard curve constructed from the integrated response [i.e., Molecular Dynamics Counts per square millimeter (MDC/mm^2)] and the nominal concentrations of the ^14C-calibration standards. The concentrations of radioactivity were expressed as the μg equivalents of [^14C]brincidofovir per gram sample (μg equiv/g). A lower limit of quantification (LLOQ) was applied to the data (See section 6.7.4).
Tissue concentrations that fell below the LLOQ were identified as being below the quantification limit (BQL). Tissue areas that were not visualized on autoradiographic images were identified as no sample (NS) and reported as BQL.

For `CCCCCCCCCCCCCCCCOCCCOP(=O)(O)CO[C@H](CO)Cn1ccc(N)nc1=O` [[^14C]brincidofovir], the “Concentration at Tmax: kidney medulla” value (Group 6 SD, 15 mg/kg PO) was 7.9 μg equiv/g, the “Concentration at Tmax: liver” value (Group 6 SD, 15 mg/kg PO) was 20.6 μg equiv/g and the “Concentration at Tmax: small intestine” value (Group 6 SD, 15 mg/kg PO) was 236.3 μg equiv/g. The “Concentration at Tmax: stomach” value (Group 6 SD, 15 mg/kg PO) was 11.2 μg equiv/g, the “Concentration at Tmax: urinary bladder” value (Group 6 SD, 15 mg/kg PO) was 17.3 μg equiv/g and the “Residual concentration in small intestine at 168 h” value (Group 6 SD, 15 mg/kg PO) was 2.7 μg equiv/g. The “Highest observed concentration in blood” value (Group 6 SD, 15 mg/kg PO, 2 h) was 0.200 μg equiv/g, the Urinary bladder contents (Group 7, 8 h) was 110.9 μg equiv/g and the “Concentration of radioactivity, Eye (lens)” value (Group 7 LE pigmented rats, oral 15 mg/kg, c2-c11 = 0.5, 1, 2, 4, 8, 24, 72, 96, 168, 840 h, LLOQ 0.034) was “BQL”. For the same compound, the “Concentration at Tmax: cecum” value (Group 7 LE, 15 mg/kg PO) was 7.6 μg equiv/g, the “Concentration at Tmax: kidney cortex” value (Group 7 LE, 15 mg/kg PO) was 17.8 μg equiv/g and the “Concentration at Tmax: kidney medulla” value (Group 7 LE, 15 mg/kg PO) was 9.1 μg equiv/g. For the same compound, the “Concentration at Tmax: large intestine” value (Group 7 LE, 15 mg/kg PO) was 3.3 μg equiv/g, the “Concentration at Tmax: liver” value (Group 7 LE, 15 mg/kg PO) was 36.1 μg equiv/g and the “Concentration at Tmax: small intestine” value (Group 7 LE, 15 mg/kg PO) was 458.5 μg equiv/g. For the same compound, the “Concentration at Tmax: stomach” value (Group 7 LE, 15 mg/kg PO) was 12.0 μg equiv/g, the “Concentration at Tmax: urinary bladder” value (Group 7 LE, 15 mg/kg PO) was 3.7 μg equiv/g and the “Highest observed concentration in blood” value (Group 7 LE, 15 mg/kg PO, 8 h) was 1.1 μg equiv/g. For the same compound, the Concentration of radioactivity (Harderian Gland, 2 h) was 2.081 μg equiv./g, the Concentration of radioactivity (Harderian Gland, 24 h) was 1.278 μg equiv./g and the Concentration of radioactivity (Harderian Gland, 168 h) was 0.954 μg equiv./g. For the same compound, the Concentration of radioactivity (Heart, 2 h) was 2.540 μg equiv./g, the Concentration of radioactivity (Heart, 24 h) was 0.408 μg equiv./g and the Concentration of radioactivity (Heart, 168 h) was 0.057 μg equiv./g. For the same compound, the “Radioactivity in brain and spinal cord relative to plasma concentration” value (IV administration) was roughly 20%, the “Tissue to plasma ratios (T/P) in liver, kidney and small intestine” value (IV and oral) was greater than 30 and the “Small intestine tissue to plasma ratio” value (IV infusion, 15 mg/kg) was 32. It also gave a Concentration of radioactivity (Kidney Cortex, 2 h) of 106.513 μg equiv./g, a Concentration of radioactivity (Kidney Cortex, 24 h) of 32.109 μg equiv./g and a Concentration of radioactivity (Kidney Cortex, 168 h) of 0.474 μg equiv./g. The Concentration of radioactivity (Kidney Medulla, 2 h) was 33.444 μg equiv./g, the Concentration of radioactivity (Kidney Medulla, 24 h) was 4.271 μg equiv./g and the Concentration of radioactivity (Kidney Medulla, 168 h) was 0.186 μg equiv./g. The Concentration of radioactivity (Liver, 2 h) was 229.371 μg equiv./g, the Concentration of radioactivity (Liver, 24 h) was 13.907 μg equiv./g and the Concentration of radioactivity (Liver, 168 h) was 0.453 μg equiv./g. It also gave a Concentration of radioactivity (Lung, 2 h) of 5.675 μg equiv./g, a Concentration of radioactivity (Lung, 24 h) of 1.128 μg equiv./g and a Concentration of radioactivity (Lung, 168 h) of 0.296 μg equiv./g. It also gave a Concentration of radioactivity (Lymph Node, 2 h) of 4.055 μg equiv./g, a Concentration of radioactivity (Lymph Node, 24 h) of 1.004 μg equiv./g and a Concentration of radioactivity (Lymph Node, 168 h) of 0.247 μg equiv./g. For the same compound, the Concentration of radioactivity (Pancreas, 2 h) was 1.974 μg equiv./g, the Concentration of radioactivity (Pancreas, 24 h) was 0.557 μg equiv./g and the Concentration of radioactivity (Pancreas, 168 h) was “BQL (BQL = Value is below the LLOQ)”. For the same compound, the Concentration of radioactivity (Pituitary Gland, 2 h) was 2.793 μg equiv./g, the Concentration of radioactivity (Pituitary Gland, 24 h) was 1.021 μg equiv./g and the Concentration of radioactivity (Pituitary Gland, 168 h) was 0.257 μg equiv./g. The Concentration of radioactivity (Prostate Gland, 2 h) was 2.033 μg equiv./g, the Concentration of radioactivity (Prostate Gland, 24 h) was 0.254 μg equiv./g and the Concentration of radioactivity (Prostate Gland, 168 h) was 0.051 μg equiv./g. For the same compound, the Concentration of radioactivity (Salivary Gland, 2 h) was 2.049 μg equiv./g, the Concentration of radioactivity (Salivary Gland, 24 h) was 0.395 μg equiv./g and the Concentration of radioactivity (Salivary Gland, 168 h) was 0.047 μg equiv./g. For the same compound, the Concentration of radioactivity (Seminal Vesicles, 2 h) was 1.809 μg equiv./g, the Concentration of radioactivity (Seminal Vesicles, 24 h) was 1.636 μg equiv./g and the Concentration of radioactivity (Seminal Vesicles, 168 h) was 0.817 μg equiv./g. The Concentration of radioactivity (Skeletal Muscle, 2 h) was 0.868 μg equiv./g, the Concentration of radioactivity (Skeletal Muscle, 24 h) was 0.099 μg equiv./g and the Concentration of radioactivity (Skeletal Muscle, 168 h) was “BQL (BQL = Value is below the LLOQ)”. It also gave a Concentration of radioactivity (Skin (non-pigmented), 2 h) of 2.277 μg equiv./g, a Concentration of radioactivity (Skin (non-pigmented), 24 h) of 0.602 μg equiv./g and a Concentration of radioactivity (Skin (non-pigmented), 168 h) of 0.121 μg equiv./g. The Concentration of radioactivity (Spinal Cord, 2 h) was 0.437 μg equiv./g, the Concentration of radioactivity (Spinal Cord, 24 h) was 0.079 μg equiv./g and the Concentration of radioactivity (Spinal Cord, 168 h) was “BQL (BQL = Value is below the LLOQ)”. For the same compound, the Concentration of radioactivity (Spleen, 2 h) was 4.536 μg equiv./g, the Concentration of radioactivity (Spleen, 24 h) was 2.244 μg equiv./g and the Concentration of radioactivity (Spleen, 168 h) was 0.694 μg equiv./g. It also gave a Concentration of radioactivity (Testis, 2 h) of 1.647 μg equiv./g, a Concentration of radioactivity (Testis, 24 h) of 0.436 μg equiv./g and a Concentration of radioactivity (Testis, 168 h) of 0.078 μg equiv./g. The Concentration of radioactivity (Thymus, 2 h) was 2.373 μg equiv./g, the Concentration of radioactivity (Thymus, 24 h) was 0.556 μg equiv./g and the Concentration of radioactivity (Thymus, 168 h) was 0.105 μg equiv./g. The Concentration of radioactivity (Thyroid, 2 h) was 2.751 μg equiv./g, the Concentration of radioactivity (Thyroid, 24 h) was 0.791 μg equiv./g and the Concentration of radioactivity (Thyroid, 168 h) was 0.239 μg equiv./g. It also gave a Concentration of radioactivity (Urinary Bladder (contents), 2 h) of 47.034 μg equiv./g, a Concentration of radioactivity (Urinary Bladder (contents), 24 h) of 21.237 μg equiv./g and a Concentration of radioactivity (Urinary Bladder (contents), 168 h) of 0.121 μg equiv./g. The Concentration of radioactivity (Urinary Bladder, 2 h) was 35.978 μg equiv./g, the Concentration of radioactivity (Urinary Bladder, 24 h) was 2.264 μg equiv./g and the Concentration of radioactivity (Urinary Bladder, 168 h) was 0.132 μg equiv./g. For the same compound, the “Radioactivity in brain and spinal cord relative to plasma concentration” value (oral administration) was roughly 5%, the “Small intestinal tissue to plasma ratio (T/P)” value (oral administration, 15 mg/kg) was 428 and the “Residual concentration in small intestine at 168 h” value (pigmented LE rats, 15 mg/kg PO) was 5.9 μg equiv/g.

Source: patent US20170368082A1, “FORMULATIONS OF BRINCIDOFOVIR” (priority 2016, published 2017)
